For test [1], the target named is T1, C-X-C chemokine receptor type 3 (Homo sapiens, UniProt P49682).
T1 sequence (P49682 whole entry): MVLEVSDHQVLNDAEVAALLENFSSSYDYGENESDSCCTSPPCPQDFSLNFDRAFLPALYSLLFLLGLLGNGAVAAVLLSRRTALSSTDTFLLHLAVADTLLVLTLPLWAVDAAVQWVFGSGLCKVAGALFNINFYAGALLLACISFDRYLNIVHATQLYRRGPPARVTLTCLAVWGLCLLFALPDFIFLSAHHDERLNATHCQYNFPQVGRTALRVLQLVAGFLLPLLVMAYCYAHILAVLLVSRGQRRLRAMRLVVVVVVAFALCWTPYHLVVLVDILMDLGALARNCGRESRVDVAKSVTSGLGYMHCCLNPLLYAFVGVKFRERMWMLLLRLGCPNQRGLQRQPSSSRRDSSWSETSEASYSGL
The test can be described thus: Displacement of radiolabeled CXCL11 from human CXCR3 expressed in CHO cells by scintillation proximity assay. The class given is cell-based. (In a scintillation proximity assay essentially only radioactivity close to the scintillant gives light.)

In test [2] the target is T1, C-X-C chemokine receptor type 3. The test is described as follows: Antagonist activity at human CXCR3 expressed in mouse L1.2 cells assessed as inhibition of ITAC-induced calcium mobilization by FLIPR assay. The class given is functional, cell-based. (In general: Calcium flux is commonly read through the fluorescence of an indicator in the cells.)
For test [3], the target named is T2, C-X-C chemokine receptor type 3 (Mus musculus, UniProt O88410).
T2 sequence (O88410 whole entry): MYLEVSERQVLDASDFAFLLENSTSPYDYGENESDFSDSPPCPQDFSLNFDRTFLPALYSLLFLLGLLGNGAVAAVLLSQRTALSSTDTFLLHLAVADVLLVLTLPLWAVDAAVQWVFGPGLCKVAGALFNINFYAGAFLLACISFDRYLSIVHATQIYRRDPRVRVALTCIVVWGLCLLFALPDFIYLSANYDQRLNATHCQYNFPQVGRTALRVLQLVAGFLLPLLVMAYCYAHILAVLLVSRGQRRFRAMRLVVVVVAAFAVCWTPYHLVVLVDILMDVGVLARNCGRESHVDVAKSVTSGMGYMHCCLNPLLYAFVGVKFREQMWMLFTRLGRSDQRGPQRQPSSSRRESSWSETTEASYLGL
The test is described as follows: Antagonist activity at mouse CXCR3 expressed in mouse L1.2 cells assessed as inhibition of ITAC-induced calcium mobilization by FLIPR assay. The class given is functional, cell-based.

Usually IC50 stands for the concentration that inhibits the measured activity by half.

Take `NC(=O)[C@@H]1C=C2c3cccc4[nH]cc(c34)C[C@H]2N(C(=O)Nc2ccccc2)C1`: the 50% inhibitory concentration (IC50) in test [1] is over 10000 nM.
On to `CCNC(=O)[C@@H]1C=C2c3cccc4[nH]cc(c34)C[C@H]2N(C(=O)Nc2ccccc2)C1`, for which the IC50 in test [1] is 379 nM; in test [2] it was 71 nM; in test [3], 90 nM.
For the molecule `CN(C)C(=O)[C@@H]1C=C2c3cccc4[nH]cc(c34)C[C@H]2N(C(=O)Nc2ccccc2)C1`, the IC50 in test [1] came out at 28 nM; in test [2] it was 10 nM; in test [3] it was 10 nM.
`COCCN(CCOC)C(=O)[C@@H]1C=C2c3cccc4[nH]cc(c34)C[C@H]2N(C(=O)Nc2ccccc2)C1`: the values for the half-maximal inhibitory concentration (IC50) in test [1], in test [2] and in test [3] were 305 nM, 187 nM and 437 nM, respectively.
For `CN(CCO)C(=O)[C@@H]1C=C2c3cccc4[nH]cc(c34)C[C@H]2N(C(=O)Nc2ccccc2)C1` the same measures were 66 nM, 12 nM and 9 nM.
With `O=C([C@@H]1C=C2c3cccc4[nH]cc(c34)C[C@H]2N(C(=O)Nc2ccccc2)C1)N1CCC1`, the half-inhibitory concentration (IC50) in test [3] stood at 14 nM.
Consider `O=C([C@@H]1C=C2c3cccc4[nH]cc(c34)C[C@H]2N(C(=O)Nc2ccccc2)C1)N1CCCCCC1`, for which the 50% inhibitory concentration (IC50) in test [1] was 81 nM; in test [2], 14 nM; in test [3] it was 13 nM.
Regarding `O=C([C@@H]1C=C2c3cccc4[nH]cc(c34)C[C@H]2N(C(=O)Nc2ccccc2)C1)N1CC=CC1`, the IC50 in test [1] came out at 17 nM; in test [2], 3 nM; in test [3], 3 nM.
For the molecule `O=C([C@@H]1C=C2c3cccc4[nH]cc(c34)C[C@H]2N(C(=O)Nc2ccccc2)C1)N1C=CCCC1`, the IC50 turned out to be 12 nM in test [1], 4 nM in test [2] and 2 nM in test [3].
For `O=C([C@@H]1C=C2c3cccc4[nH]cc(c34)C[C@H]2N(C(=O)Nc2ccccc2)C1)N1CCNCC1` the same measures were 1010 nM, 457 nM and 1730 nM.
On to `O=C1CN(C(=O)[C@@H]2C=C3c4cccc5[nH]cc(c45)C[C@H]3N(C(=O)Nc3ccccc3)C2)CCN1`, for which the IC50 in test [1] amounted to 255 nM; in test [2] it was 74 nM.
Take `CN1CCN(C(=O)[C@@H]2C=C3c4cccc5[nH]cc(c45)C[C@H]3N(C(=O)Nc3ccccc3)C2)CC1`: the IC50 in test [1] is 131 nM; in test [2], 83 nM; in test [3] it was 112 nM.
For the molecule `CC(=O)N1CCN(C(=O)[C@@H]2C=C3c4cccc5[nH]cc(c45)C[C@H]3N(C(=O)Nc3ccccc3)C2)CC1`, the IC50 worked out at 825 nM in test [1] and 286 nM in test [2].
On to `O=C([C@@H]1C=C2c3cccc4[nH]cc(c34)C[C@H]2N(C(=O)Nc2ccccc2)C1)N1CCOCC1`, for which the concentration for half-maximal inhibition (IC50) in test [1] worked out at 22 nM; in test [3], 12 nM.
With `CC1CN(C(=O)[C@@H]2C=C3c4cccc5[nH]cc(c45)C[C@H]3N(C(=O)Nc3ccccc3)C2)CC(C)O1` (some centres not stated), the IC50 in test [1] is 1160 nM; in test [2], 216 nM.
With `O=C([C@@H]1C=C2c3cccc4[nH]cc(c34)C[C@H]2N(C(=O)Nc2ccccc2)C1)N1CCS(=O)(=O)CC1`, the IC50 came to 400 nM in test [1], 67 nM in test [2] and 534 nM in test [3].
For `O=C([C@@H]1C=C2c3cccc4[nH]cc(c34)C[C@H]2N(C(=O)Nc2ccccc2)C1)N1CC[C@@H](O)[C@@H](O)C1` the same measures were 50 nM, 200 nM and 40 nM.
As to `O=C([C@@H]1C=C2c3cccc4[nH]cc(c34)C[C@H]2N(C(=O)Nc2ccccc2)C1)N1CC[C@@H](O)C1`, the 50% inhibitory concentration (IC50) is 61 nM in test [1] and 22 nM in test [2].
On to `O=C([C@@H]1C=C2c3cccc4[nH]cc(c34)C[C@H]2N(C(=O)Nc2ccccc2)C1)N1CC[C@H](O)C1`, for which the concentration for half-maximal inhibition (IC50) in test [1] turned out to be 47 nM; in test [2] it was 12 nM; in test [3], 19 nM.
Consider `O=C([C@@H]1C=C2c3cccc4[nH]cc(c34)C[C@H]2N(C(=O)Nc2ccccc2F)C1)N1CCCC1`, for which the half-maximal inhibitory concentration (IC50) in test [3] was 16 nM.
Take `O=C([C@@H]1C=C2c3cccc4[nH]cc(c34)C[C@H]2N(C(=O)Nc2cccc(F)c2)C1)N1CCCC1`: the concentration for half-maximal inhibition (IC50) in test [1] was determined as 4 nM; in test [2], 3 nM; in test [3], 2 nM.
The corresponding values for `O=C([C@@H]1C=C2c3cccc4[nH]cc(c34)C[C@H]2N(C(=O)Nc2ccc(F)cc2)C1)N1CCCC1` are 7 nM, 4 nM and 4 nM.
As for `COc1ccccc1NC(=O)N1C[C@H](C(=O)N2CCCC2)C=C2c3cccc4[nH]cc(c34)C[C@H]21`, the IC50 in test [1] is 523 nM; in test [2] it was 60 nM.
As for `COc1cccc(NC(=O)N2C[C@H](C(=O)N3CCCC3)C=C3c4cccc5[nH]cc(c45)C[C@H]32)c1`, the IC50 came to 278 nM in test [1], 27 nM in test [2] and 74 nM in test [3].
For `COc1ccc(NC(=O)N2C[C@H](C(=O)N3CCCC3)C=C3c4cccc5[nH]cc(c45)C[C@H]32)cc1`, the IC50 in test [1] was 393 nM; in test [2], 89 nM.
Turning to `CN(C)Cc1ccccc1NC(=O)N1C[C@H](C(=O)N2CCCC2)C=C2c3cccc4[nH]cc(c34)C[C@H]21`, in test [2], the IC50 is over 10000 nM.
For `CN(C)Cc1cccc(NC(=O)N2C[C@H](C(=O)N3CCCC3)C=C3c4cccc5[nH]cc(c45)C[C@H]32)c1`, the half-maximal inhibitory concentration (IC50) in test [2] amounted to 6200 nM.
As for `CN(C)Cc1ccc(NC(=O)N2C[C@H](C(=O)N3CCCC3)C=C3c4cccc5[nH]cc(c45)C[C@H]32)cc1`, the 50% inhibitory concentration (IC50) in test [2] worked out at 5400 nM.
Turning to `O=C([C@@H]1C=C2c3cccc4[nH]cc(c34)C[C@H]2N(C(=O)Nc2ccsc2)C1)N1CCCC1`, the IC50 in test [1] is 26 nM; in test [2], 7 nM; in test [3], 11 nM.
Consider `O=C([C@@H]1C=C2c3cccc4[nH]cc(c34)C[C@H]2N(C(=O)Nc2cccs2)C1)N1CCCC1`, for which the 50% inhibitory concentration (IC50) was found to be 37 nM in test [1], 8 nM in test [2] and 10 nM in test [3].
On to `O=C([C@@H]1C=C2c3cccc4[nH]cc(c34)C[C@H]2N(C(=O)Nc2cc[nH]c2)C1)N1CCCC1`, for which the concentration for half-maximal inhibition (IC50) in test [1] and in test [2] was over 10000 nM throughout.
For `O=C([C@@H]1C=C2c3cccc4[nH]cc(c34)C[C@H]2N(C(=O)NC2CCCC2)C1)N1CCCC1`, the concentration for half-maximal inhibition (IC50) in test [1] is 160 nM; in test [2], 73 nM; in test [3], 81 nM.
Turning to `O=C([C@@H]1C=C2c3cccc4[nH]cc(c34)C[C@H]2N(C(=O)NC2CCCCC2)C1)N1CCCC1`, the 50% inhibitory concentration (IC50) in test [1] came out at 24 nM; in test [2], 11 nM; in test [3] it was 31 nM.
In the case of `O=C([C@@H]1C=C2c3cccc4[nH]cc(c34)C[C@H]2N(C(=O)NC2CCCCCC2)C1)N1CCCC1`, the half-inhibitory concentration (IC50) worked out at 28 nM in test [1], 14 nM in test [2] and 16 nM in test [3].
In the case of `O=C([C@@H]1C=C2c3cccc4[nH]cc(c34)C[C@H]2N(C(=O)NC2CCC(O)CC2)C1)N1CCCC1` (some centres not stated), the IC50 was over 10000 nM in test [1] and 9480 nM in test [2].
Turning to `CNC(=O)N1C[C@H](C(=O)N2CCCC2)C=C2c3cccc4[nH]cc(c34)C[C@H]21`, the half-inhibitory concentration (IC50) in test [1] and in test [2] was over 10000 nM throughout.
In the case of `CN(C)CCCNC(=O)N1C[C@H](C(=O)N2CCCC2)C=C2c3cccc4[nH]cc(c34)C[C@H]21`, the IC50 in test [2] was over 10000 nM.
For `O=C([C@@H]1C=C2c3cccc4[nH]cc(c34)C[C@H]2N(C(=O)NCc2ccccc2)C1)N1CCCC1`, the IC50 in test [1] and in test [2] was 2200 nM throughout.
Regarding `O=C([C@@H]1C=C2c3cccc4[nH]cc(c34)C[C@H]2N(C(=O)NCc2ccco2)C1)N1CCCC1`, the values for the IC50 in test [1] and in test [2] were 2600 nM and 10000 nM, respectively.
For `O=C([C@@H]1C=C2c3cccc4[nH]cc(c34)C[C@H]2N(C(=O)c2ccccc2)C1)N1CCCC1`, the IC50 in test [1] is over 10000 nM; in test [2], 6120 nM.
`O=C([C@@H]1C=C2c3cccc4[nH]cc(c34)C[C@H]2N(C(=O)Cc2ccccc2)C1)N1CCCC1`: the concentration for half-maximal inhibition (IC50) in test [1] came out at 427 nM; in test [2], 170 nM.
For the molecule `CC(C)OC(=O)Cn1cc2c3c(cccc31)C1=C[C@@H](C(=O)N3CCCC3)CN(C(=O)Nc3ccccc3)[C@@H]1C2`, in test [3], the 50% inhibitory concentration (IC50) was determined as 53 nM.
Molecule `CCN(CC)C(=O)[C@@H]1C=C2c3cccc4[nH]cc(c34)C[C@H]2N(C(=O)Nc2ccccc2)C1` returned an IC50 in test [1] of 51 nM.
